According to publication PMC10120535, “Identification of new 4-(6-oxopyridazin-1-yl)benzenesulfonamides as multi-target anti-inflammatory agents targeting carbonic anhydrase, COX-2 and 5-LOX enzymes: synthesis, biological evaluations and modelling insights” (Journal of Enzyme Inhibition and Medicinal Chemistry, 2023):

Key:
gastric tissue of rats = test: acute ulcerogenic test, histopathology of gastric tissue; assay type: in vivo; conditions: fasted rat stomach, H & E stain
Text: (§1) The experimental procedures adopted to perform the acetic acid-induced writhing assay for the analgesic activities,[45] Paw edoema assay for the anti-inflammatory activities,[46] as well as the acute ulcerogenic test[47] have been carried out as described previously.

rat paw edoema = test: carrageen-induced rat paw edoema assay (anti-inflammatory activity); assay type: in vivo; set-up: Anti-inflammatory activity (% inhibition of edoema) 3 h: concentration or dose not given beside the values; conditions: for FIF% change in paw height (Mean ± SD) 0 h / FIF% change in paw height (Mean ± SD) 1 h / FIF% change in paw height (Mean ± SD) 2 h / FIF% change in paw height (Mean ± SD) 3 h: n = 5
Text: as §1

mice = test: acetic acid writhing test (analgesic activity); assay type: in vivo; conditions: for Number of writhing (20 min) (Mean ± SD): n = 5, control 40 ± 2.9
Text: as §1

5-LOX = test: LOX inhibitory screening assay kit; assay type: biochemical; conditions: mean from 3 different assays
COX-1 = biological target: T1, COX-1 (Ovis aries, UniProt P05979); test: COX Inhibitor screening ELISA assay kit, COX-1
T1 sequence (P05979 25-600): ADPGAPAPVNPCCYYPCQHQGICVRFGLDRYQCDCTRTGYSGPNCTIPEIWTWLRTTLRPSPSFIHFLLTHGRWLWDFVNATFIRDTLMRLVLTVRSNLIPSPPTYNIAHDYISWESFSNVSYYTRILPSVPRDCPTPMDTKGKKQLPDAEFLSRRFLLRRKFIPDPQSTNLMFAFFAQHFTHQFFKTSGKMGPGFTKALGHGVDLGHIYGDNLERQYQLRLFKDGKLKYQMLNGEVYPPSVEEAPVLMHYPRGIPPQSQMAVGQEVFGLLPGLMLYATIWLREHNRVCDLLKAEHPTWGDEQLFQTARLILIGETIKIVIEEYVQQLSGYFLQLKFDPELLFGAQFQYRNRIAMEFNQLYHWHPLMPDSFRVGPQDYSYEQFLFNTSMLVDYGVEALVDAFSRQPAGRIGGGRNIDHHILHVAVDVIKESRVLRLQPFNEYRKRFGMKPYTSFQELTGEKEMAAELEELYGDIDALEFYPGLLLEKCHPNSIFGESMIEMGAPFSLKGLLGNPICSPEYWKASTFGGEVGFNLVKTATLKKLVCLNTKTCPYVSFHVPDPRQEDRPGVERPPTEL

COX-2 = biological target: T2, COX-2 (Homo sapiens, UniProt P35354); test: COX Inhibitor screening ELISA assay kit, COX-2
T2 sequence (P35354 18-604): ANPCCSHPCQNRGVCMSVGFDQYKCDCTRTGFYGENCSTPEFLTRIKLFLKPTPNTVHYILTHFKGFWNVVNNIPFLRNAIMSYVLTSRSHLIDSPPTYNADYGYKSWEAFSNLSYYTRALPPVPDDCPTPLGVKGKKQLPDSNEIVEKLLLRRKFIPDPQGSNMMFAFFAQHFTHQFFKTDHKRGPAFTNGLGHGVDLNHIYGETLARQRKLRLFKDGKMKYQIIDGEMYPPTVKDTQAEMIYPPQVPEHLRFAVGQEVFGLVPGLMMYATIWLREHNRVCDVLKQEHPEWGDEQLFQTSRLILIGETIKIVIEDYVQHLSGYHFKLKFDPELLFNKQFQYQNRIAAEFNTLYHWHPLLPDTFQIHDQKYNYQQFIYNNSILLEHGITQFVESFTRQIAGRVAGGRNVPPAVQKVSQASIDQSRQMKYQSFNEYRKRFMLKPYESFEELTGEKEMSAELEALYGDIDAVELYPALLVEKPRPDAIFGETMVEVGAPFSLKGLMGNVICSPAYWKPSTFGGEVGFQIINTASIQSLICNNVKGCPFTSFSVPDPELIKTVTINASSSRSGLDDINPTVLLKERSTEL

IL-1β = test: serum IL-1β level by ELISA after paw edoema test; assay type: in vivo, rat; conditions: compared to the positive control group, n = 5
Text: (§2) ELISA assays were used to assess the serum level for the inflammatory mediators TNF-α (Kit Cat. No MBS355371, MyBioSource, USA), and IL-1β (Kit Cat. No MBS8825017, MyBioSource, USA) based on the manufacture instructions.[54]

TNF-α = test: serum TNF-α level by ELISA after paw edoema test; assay type: in vivo, rat; conditions: compared to the positive control group, n = 5
Text: as §2

Cc1ccc(-c2cc(C(F)(F)F)nn2-c2ccc(S(N)(=O)=O)cc2)cc1 [Celecoxib, reference compound]
Ulcerogenic effect on gastric tissue (histopathological examination) (gastric tissue of rats): normal texture | FIF% change in paw height (Mean ± SD) 0 h (rat paw edoema): 0.5 ± 0.07% | FIF% change in paw height (Mean ± SD) 1 h (rat paw edoema): 0.44 ± 0.09% | FIF% change in paw height (Mean ± SD) 2 h (rat paw edoema): 0.52 ± 0.04% | Anti-inflammatory activity (% inhibition of edoema) 3 h (rat paw edoema): 38.5% | FIF% change in paw height (Mean ± SD) 3 h (rat paw edoema): 0.48 ± 0.04 % | Analgesic activity (% protection) (mice): 60.0% | Number of writhing (20 min) (Mean ± SD) (mice): 16 ± 0.9

NS(=O)(=O)c1ccc(-n2nc(O)ccc2=O)cc1 [Compound 3, 4–(3-Hydroxy-6-oxopyridazin-1(6H)-yl)benzenesulfonamide]
IC50 (5-LOX): 2 µM | IC50 (COX-1): 11.5 µM | IC50 (COX-2): 0.07 µM

NS(=O)(=O)c1ccc(-n2nc(OCc3ccccc3)ccc2=O)cc1 [Compound 5a, 4–(3-(Benzyloxy)-6-oxopyridazin-1(6H)-yl)benzenesulfonamide]
IC50 (5-LOX): 7 µM | IC50 (COX-1): 5 µM | IC50 (COX-2): 0.11 µM

NS(=O)(=O)c1ccc(-n2nc(OCc3ccc([N+](=O)[O-])cc3)ccc2=O)cc1 [Compound 5b, 4–(3-((4-Nitrobenzyl)oxy)-6-oxopyridazin-1(6H)-yl)benzenesulfonamide]
IC50 (5-LOX): 5 µM | IC50 (COX-1): 9.5 µM | IC50 (COX-2): 0.14 µM

N#Cc1ccc(COc2ccc(=O)n(-c3ccc(S(N)(=O)=O)cc3)n2)cc1 [Compound 5c, 4–(3-((4-Cyanobenzyl)oxy)-6-oxopyridazin-1(6H)-yl)benzenesulfonamide]
IC50 (5-LOX): 7 µM | IC50 (COX-1): 6.5 µM | IC50 (COX-2): 0.07 µM

CS(=O)(=O)Oc1ccc(=O)n(-c2ccc(S(N)(=O)=O)cc2)n1 [Compound 7a, 6-Oxo-1–(4-sulfamoylphenyl)-1,6-dihydropyridazin-3-yl methanesulfonate]
Ulcerogenic effect on gastric tissue (histopathological examination) (gastric tissue of rats): normal texture | IC50 (5-LOX): 3 µM | FIF% change in paw height (Mean ± SD) 0 h (rat paw edoema): 0.52 ± 0.04% | FIF% change in paw height (Mean ± SD) 1 h (rat paw edoema): 0.46 ± 0.09% | FIF% change in paw height (Mean ± SD) 2 h (rat paw edoema): 0.44 ± 0.05% | Anti-inflammatory activity (% inhibition of edoema) 3 h (rat paw edoema): 56% | FIF% change in paw height (Mean ± SD) 3 h (rat paw edoema): 0.34 ± 0.05 % | Serum level of IL-1β (IL-1β): significantly lowered | Analgesic activity (% protection) (mice): 67.5% | IC50 (COX-1): 10.4 µM | Serum level of TNF-α (TNF-α): significantly lowered

CCS(=O)(=O)Oc1ccc(=O)n(-c2ccc(S(N)(=O)=O)cc2)n1 [Compound 7b, 6-Oxo-1–(4-sulfamoylphenyl)-1,6-dihydropyridazin-3-yl ethanesulfonate]
Ulcerogenic effect on gastric tissue (histopathological examination) (gastric tissue of rats): mild inflammation | IC50 (5-LOX): 2.5 µM | FIF% change in paw height (Mean ± SD) 0 h (rat paw edoema): 0.5 ± 0.07% | FIF% change in paw height (Mean ± SD) 1 h (rat paw edoema): 0.44 ± 0.09% | FIF% change in paw height (Mean ± SD) 2 h (rat paw edoema): 0.58 ± 0.04% | Anti-inflammatory activity (% inhibition of edoema) 3 h (rat paw edoema): 38.5% | FIF% change in paw height (Mean ± SD) 3 h (rat paw edoema): 0.48 ± 0.03 % | Serum level of IL-1β (IL-1β): significantly lowered | Analgesic activity (% protection) (mice): 65.0% | IC50 (COX-1): 12.6 µM | IC50 (COX-2): 0.06 µM | Serum level of TNF-α (TNF-α): significantly lowered

NS(=O)(=O)c1ccc(-n2nc(OS(=O)(=O)c3ccccc3)ccc2=O)cc1 [Compound 7c, 6-Oxo-1–(4-sulfamoylphenyl)-1,6-dihydropyridazin-3-yl benzenesulfonate]
IC50 (5-LOX): 4 µM | IC50 (COX-1): 8.4 µM | IC50 (COX-2): 0.08 µM

Cc1ccc(S(=O)(=O)Oc2ccc(=O)n(-c3ccc(S(N)(=O)=O)cc3)n2)cc1 [Compound 7d, 6-Oxo-1–(4-sulfamoylphenyl)-1,6-dihydropyridazin-3-yl 4-methylbenzenesulfonate]
IC50 (5-LOX): 3.5 µM | IC50 (COX-1): 8.4 µM | IC50 (COX-2): 0.08 µM

COc1ccc(S(=O)(=O)Oc2ccc(=O)n(-c3ccc(S(N)(=O)=O)cc3)n2)cc1 [Compound 7e, 6-Oxo-1–(4-sulfamoylphenyl)-1,6-dihydropyridazin-3-yl 4-methoxybenzenesulfonate]
IC50 (5-LOX): 5 µM | IC50 (COX-1): 6.5 µM | IC50 (COX-2): 0.09 µM

NS(=O)(=O)c1ccc(-n2nc(OS(=O)(=O)c3ccc(F)cc3)ccc2=O)cc1 [Compound 7f, 6-Oxo-1–(4-sulfamoylphenyl)-1,6-dihydropyridazin-3-yl 4-fluorobenzenesulfonate]
IC50 (5-LOX): 6.5 µM | IC50 (COX-1): 8.5 µM | IC50 (COX-2): 0.11 µM

O=C(O)Cc1ccccc1Nc1c(Cl)cccc1Cl [Diclofenac, reference compound]
Ulcerogenic effect on gastric tissue (histopathological examination) (gastric tissue of rats): inflammation and damage to the layers of the stomach | FIF% change in paw height (Mean ± SD) 0 h (rat paw edoema): 0.52 ± 0.04% | FIF% change in paw height (Mean ± SD) 1 h (rat paw edoema): 0.28 ± 0.04% | FIF% change in paw height (Mean ± SD) 2 h (rat paw edoema): 0.32 ± 0.04% | Anti-inflammatory activity (% inhibition of edoema) 3 h (rat paw edoema): 59% | FIF% change in paw height (Mean ± SD) 3 h (rat paw edoema): 0.32 ± 0.04 % | Analgesic activity (% protection) (mice): 70.0% | Number of writhing (20 min) (Mean ± SD) (mice): 12 ± 1.9
